Results reported in paper PMC6017115, “Inhibitory Effect of Sauchinone on UDP-Glucuronosyltransferase (UGT) 2B7 Activity” (Molecules : A Journal of Synthetic Chemistry and Natural …, 2018).

Tests used:
UGT1A9 [1] = target: T1, UGT1A9 (Homo sapiens, UniProt O60656); assay: Inhibition of UGT1A9 (propofol glucuronidation) in human liver microsomes; format: in vitro ADME
T1 construct: The reaction mixture containing 0.25 mg/mL protein of HLM; tissue Corning Life Sciences 452156; host or cells: pooled human liver microsomes, 50 donors
T1 sequence (O60656 26-530): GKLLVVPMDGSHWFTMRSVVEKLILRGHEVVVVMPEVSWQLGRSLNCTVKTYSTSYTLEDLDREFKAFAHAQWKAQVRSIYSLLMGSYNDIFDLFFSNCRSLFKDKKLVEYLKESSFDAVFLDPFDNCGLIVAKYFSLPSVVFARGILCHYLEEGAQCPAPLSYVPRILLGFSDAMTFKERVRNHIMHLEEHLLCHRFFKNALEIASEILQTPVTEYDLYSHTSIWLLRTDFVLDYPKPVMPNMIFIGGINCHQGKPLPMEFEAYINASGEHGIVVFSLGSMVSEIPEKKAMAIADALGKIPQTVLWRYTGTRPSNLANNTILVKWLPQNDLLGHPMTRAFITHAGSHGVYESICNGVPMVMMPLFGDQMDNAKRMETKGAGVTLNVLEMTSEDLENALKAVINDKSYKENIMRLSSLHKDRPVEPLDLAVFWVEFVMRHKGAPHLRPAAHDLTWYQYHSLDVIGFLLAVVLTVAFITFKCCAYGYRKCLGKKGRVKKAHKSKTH
Description: (§1) Their IC50 values were compared to that of sauchinone. […] UGT-mediated activities in the presence of sauchinone as an inhibitor were expressed as percentages of corresponding control values (in absence of sauchinone). From percentages of control activity versus inhibitor concentrations, a sigmoid shaped curve was fitted to the data and IC50 as an enzyme inhibition parameter was calculated by fitting the Hill equation to the data using GraphPad Prism 5 (GraphPad Software Inc., San Diego, CA, USA).

[2] = parameters: method as in PMID 25747980; conditions: mice; oral administration of 100 mg/kg sauchinone; read-out: Cmax in mice plasma; cited from earlier work
Ugt2b7 = assay: Inhibition of Ugt2b7 (zidovudine) in mice liver microsomes; format: in vitro ADME; conditions: mouse, pH 7.6, probe zidovudine (100 μM, in UGT substrate cocktail)
Description: (§2) Their IC50 values were compared to that of sauchinone. […] Mice were sacrificed and then livers were removed and rinsed with saline. After weighing the livers, they were homogenized with a four-fold volume of ice-cold homogenizing buffer (0.154 M KCl, 50 mM Tris-base, 1 mM EDTA, pH 7.4). After centrifugation for 35 min at 9000× g and 4 °C, the supernatants were centrifuged for 95 min at 100,000× g and at 4 °C. The supernatants were discarded and the pellets were homogenized again with ice-cold homogenizing buffer. These aliquots were stored at −80 °C. The subsequent process to evaluate the inhibitory effects of sauchinone on UGT activities in MLM was the same as those using HLM. UGT-mediated activities in the presence of sauchinone as an inhibitor were expressed as percentages of corresponding control values (in absence of sauchinone). From percentages of control activity versus inhibitor concentrations, a sigmoid shaped curve was fitted to the data and IC50 as an enzyme inhibition parameter was calculated by fitting the Hill equation to the data using GraphPad Prism 5 (GraphPad Software Inc., San Diego, CA, USA).

Ugt1a3 = assay: Inhibition of Ugt1a3 (CDCA) in mice liver microsomes; format: in vitro ADME; conditions: mouse, pH 7.6, read-out: IC50 of Ugt1a3-catalyzed CDCA
Description: as §2

UGT1A1 = target: T2, UGT1A1 (Homo sapiens, UniProt P22309); assay: Inhibition of UGT1A1 (β-estradiol glucuronidation) in human liver microsomes; format: in vitro ADME; conditions: substrate 10 μM β-estradiol, mean (minimum–maximum)
T2 construct: The reaction mixture containing 0.25 mg/mL protein of HLM; tissue Corning Life Sciences 452156; host or cells: pooled human liver microsomes, 50 donors
T2 sequence (P22309 26-533): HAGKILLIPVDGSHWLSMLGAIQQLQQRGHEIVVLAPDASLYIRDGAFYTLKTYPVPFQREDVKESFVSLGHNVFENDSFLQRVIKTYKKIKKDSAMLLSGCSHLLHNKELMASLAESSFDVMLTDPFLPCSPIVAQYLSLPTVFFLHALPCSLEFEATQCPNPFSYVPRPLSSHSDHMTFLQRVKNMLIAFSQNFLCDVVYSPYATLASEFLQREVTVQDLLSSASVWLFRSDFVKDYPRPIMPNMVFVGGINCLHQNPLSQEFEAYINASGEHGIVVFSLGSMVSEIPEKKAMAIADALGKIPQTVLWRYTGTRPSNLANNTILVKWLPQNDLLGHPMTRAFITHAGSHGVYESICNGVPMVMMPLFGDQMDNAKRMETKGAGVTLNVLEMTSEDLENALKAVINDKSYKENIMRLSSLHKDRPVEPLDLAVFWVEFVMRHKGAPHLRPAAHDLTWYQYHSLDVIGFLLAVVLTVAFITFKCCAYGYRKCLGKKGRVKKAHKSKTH
Description: as §1

Ugt1a9 [3] = target: T3, Ugt1a9 (Mus musculus, UniProt Q62452); assay: Inhibition of Ugt1a9 (propofol) in mice liver microsomes; format: in vitro ADME; conditions: pH 7.6, probe propofol (100 μM, in UGT substrate cocktail), read-out: IC50 of Ugt1a9-catalyzed propofol
T3 construct: from tissue; host or cells: mouse liver microsomes prepared in house
T3 sequence (Q62452 24-528): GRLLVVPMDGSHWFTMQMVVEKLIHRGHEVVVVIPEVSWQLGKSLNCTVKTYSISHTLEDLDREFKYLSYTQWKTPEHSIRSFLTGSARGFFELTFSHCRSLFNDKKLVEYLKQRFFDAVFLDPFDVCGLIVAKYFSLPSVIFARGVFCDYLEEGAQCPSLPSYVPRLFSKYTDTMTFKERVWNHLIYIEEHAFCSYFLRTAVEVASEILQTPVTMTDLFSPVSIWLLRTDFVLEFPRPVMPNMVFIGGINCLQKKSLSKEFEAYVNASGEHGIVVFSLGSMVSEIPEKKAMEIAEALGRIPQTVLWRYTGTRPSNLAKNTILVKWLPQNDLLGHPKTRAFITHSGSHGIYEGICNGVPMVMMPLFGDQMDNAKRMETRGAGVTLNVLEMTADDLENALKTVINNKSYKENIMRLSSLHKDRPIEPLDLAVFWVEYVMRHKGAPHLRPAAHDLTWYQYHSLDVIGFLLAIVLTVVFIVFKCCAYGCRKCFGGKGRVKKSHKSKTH
Description: as §2

C[C@@H]1[C@H]2c3cc4c(cc3O[C@@]35OCOC3=CC(=O)[C@H](C[C@H]1C)[C@@H]25)OCO4 [Sauchinone]
inhibitory effect on UGT1A9 activity (UGT1A9 [1]; sauchinone up to 200 μM): negligible inhibitory effect | IC50 (UGT1A9 [1]; substrate 100 μM propofol, mean (minimum–maximum)): > 200 µM | Cmax [2]: 1530 nM | IC50 (Ugt2b7): 23 µM | IC50 (Ugt1a3): 79.9 µM | IC50 (UGT1A1): 8.83 µM | IC50 (Ugt1a9 [3]): 29.8 µM
